Laboratory results from patent EP0428486B1, “Polymyxin conjugates” (SANDOZ LTD., priority 1989, dated 1991).

How the values were obtained:
E.coli 0111B4 endotoxin = assay: Endotoxin-induced lethality test, i.v. treatment, Example 4; type: in vivo; conditions: i.v. injection 1-3 minutes before an LD90 i.p. injection of E.coli 0111B4 endotoxin (0.5 µg/kg)
non-sensitized mice = assay: PMB (native and conjugated forms) induced lethality, i.p.; type: in vivo, Male CB57BL/c mice; conditions: intraperitoneal injection, lethality monitored for 7 days
Protocol: (§1) As used herein the following definitions apply: • LD₀ is the highest non-toxic dose of PMB or its conjugate; • LD₁₀₀ is the dose of PMB or its conjugated form which results in 90-100% lethality when injected into a normal test animal; • PD₁₀₀ is the dose of polymyxin B or its conjugated form which, when injected into a hypersensitized test animal, results in at least 95 % survival; • Therapeutic Index (TI) is calculated by dividing LD₁₀₀ by PD₁₀₀.
PMB (native and conjugated forms) are evaluated for their inherent toxicity in non-sensitized mice. Male CB57BL/c mice (18-22 g, Jackson Labs) are used throughout this study. Animals are given either native PMB or conjugated PMB by intraperitoneal injection (0.5 ml/animal) and lethality is monitored for 7 days. The LD₁₀₀ is determined by varying the dose of PMB (native and conjugated forms) that result in 100 % lethality. From 10 to 20 animals are used for each dose.

endotoxin (0111B₄) = assay: PMB anti-endotoxin evaluation (endotoxin-induced lethality in galactosamine-hypersensitized mice), i.p.; type: in vivo, Male CB57BL/c mice
Protocol: as §1
Male CB57BL/c mice (18-22 g, Jackson Labs) are used throughout this study. Animals are given endotoxin (0111B₄ from List Biologicals, Palo Alto, CA, USA) and galactosamine to hypersensitize, as described in Galanos et al., Proc. Natl. Acad. Sci. USA 76 (1979) 5939. The endotoxin and galactosamine (320 mg/kg) are injected intraperitoneally in 0.5 ml pyrogen-free isotonic saline per animal between 13:00 and 15:00 to avoid diurnal variation. From a dose-response study, it is determined that 0.01 mg/kg endotoxin produces 85-95 % lethality. Animals are observed each day for 6 days after injection.
PMB (native and conjugated forms) are evaluated for their ability to neutralize endotoxin by either pre-mixing with endotoxin for 60 minutes before i.p. injection or by coadministration of the substances as a single i.p. injection. […]

[1] = Toxicity (lethality) after i.v. injection, Example 4; type: in vivo
Protocol: The ultra-pure PMB-conjugate has an LD₀ of > 100 mg/kg and it has not been possible to establish an LD₁₀₀ due to its inherent non-toxicity. Comparisons in the table below are made between the highest non-toxic dose of PMB (native or conjugated): […]

polymyxin B [Native PMB]
PD₁₀₀ (E.coli 0111B4 endotoxin): 0.1 mg/kg
LD₁₀₀ (non-sensitized mice): 25 mg/kg
PD₁₀₀ (endotoxin (0111B₄); PMB or conjugate allowed to react with the endotoxin for 60 min before i.p. injection): 2 mg/kg
PD₁₀₀ (endotoxin (0111B₄); i.p., hypersensitized mice (galactosamine 320 mg/kg, endotoxin 0.01 mg/kg), pre-mixing or coadministration not stated for these rows): 2 mg/kg
LD₁₀₀ i.v. ([1]; i.v.): 9.5 mg/kg
LD₀ ([1]; i.v. injection, lethality monitored over 7 days, highest non-toxic dose): 5 mg/kg
